“And” between values parts separate entries of the source, which are not always exact repeats. Identical values can stand only once. “Also recorded” adds a separate entry of the source. Like-named read-outs stand apart in the source and are kept apart here.
What was measured:
[1] = tested on: KB3.1 (human cervix carcinoma); experiment: Cytotoxicity assay (MTT), KB3.1; assay type: cell-based; conditions: Homo sapiens, KB 3-1, 120 h, read-out: IC50 KB3.1
Description: (§1) The cytotoxicity assay was implemented in 96-well flat-bottom microtiter plates following a reported procedure.[21],[22],[33] The mammalian cell lines L929 (mouse fibroblast) and KB3.1 (human cervix carcinoma) were cultivated at 37 °C and 10% CO2 in Dulbecco’s modified minimum essential medium (DMEM, Life Technologies, Carlsbad, CA, USA) supplemented with 10% fetal bovine serum (FBS, Life Technologies). The microtiter plate was filled with 120 μL of suspended cells (50,000/mL), and 60 μL of a serial dilution of the test compound was added. After 5 days of incubation, growth inhibition (IC50) was determined by a colorimetric tetrazolium dye MTT assay.[34] The compounds were dissolved in MeOH (1 mg/mL), MeOH was used as negative control, and epothilone[35] (1 mg/mL) was used as positive control.

[2] = tested on: L929 (mouse fibroblast); experiment: Cytotoxicity assay (MTT), L929; assay type: cell-based; conditions: Mus musculus, L929, 120 h, read-out: IC50 L929
Description: as §1

[3] = target: T1, actin (G-actin purified from rabbit skeletal muscle) (Oryctolagus cuniculus, UniProt P68135); experiment: Pyrene actin polymerization assay; assay type: biochemical; conditions: 2 μM compound, 2 μM actin (5% pyrene-actin), 550 nM actin seeds, after 30 min; control = 100%
T1 construct: 1.5 kg of fresh rabbit skeletal muscle was minced with a meat grinder; from tissue; host or cells: rabbit skeletal muscle (acetone powder)
Text: To rule out that the reduced in cellulo efficacies of 3–5 could instead be explained by an altered membrane permeability of modified compounds or their differential effects on other intracellular factors, pyrene actin polymerization assays[23] were used to analyze potential effects on actin assembly in vitro under defined conditions. Globular actin (G-actin) was purified from rabbit skeletal muscle[24] and fluorescently labeled with pyrene (see description in the Supporting Information). G-actin (2 μM) supplemented with 5% pyrene-labeled actin was added to actin seeds and the respective compound (2 μM) in polymerization buffer to initiate the reaction. Actin polymerization was then assessed by reading out the increasing pyrene fluorescence signal over time (Figure 3).
Acetone powder and G-actin were prepared as described previously.[24] Briefly, 1.5 kg of fresh rabbit skeletal muscle was minced with a meat grinder. Subsequently, the meat was stirred for 15 min in 2.5 L of high-salt buffer (0.5 M KCl, 0.1 M K2HPO4, 2 mM benzamidine, pH 6.4) and then pelleted at 4000g for 10 min. The supernatant was discarded, and the pellet was extracted once more with high-salt buffer and then washed twice with ice-cold ddH2O adjusting the slurry with 1 M Na2CO3 to pH 8.3 until a slight swelling of the pellet became visible. The pellet was then resuspended in ice-cold acetone, stirred for 15 min, and then centrifuged for 10 min at 4000g. The supernatant was discarded, and the pellet was washed once more with acetone before the pellet was broken up and dried in small pieces on aluminum foil under a fume hood overnight. The dried acetone powder was stored at −80 °C for further use.
For purification of G-actin, 5 g of the acetone powder was extracted five times with 50 mL of G-buffer containing 2 mM Tris-HCl, pH 8.0, 0.2 mM CaCl2, 0.5 mM DTT, 0.2 mM Na2ATP, and 0.1 mg/mL NaN3. After each step, the solution was filtered through a fine gauze, yielding a total volume of 250 mL. Subsequently, the solution was centrifuged for 30 min at 20,000g at 4 °C. Actin in the supernatant was then polymerized by addition of 25 × polymerization buffer (250 mM Tris-HCl pH 8.0, 1250 mM KCl, 25 mM Na2ATP, 50 mM MgCl2 × 6 H2O) overnight. Subsequently, KCl was added to a final concentration of 750 mM, followed by centrifugation of the solution at 150,000g at 4 °C for 3 h. The F-actin pellet was then homogenized with 25 mL of G-actin buffer using a potter and then dialyzed against G-buffer. After a final centrifugation step at 150,000g at 4 °C for 3 h, G-actin was purified by size exclusion chromatography using a HiLoad 26/75 Superdex 200 column. Actin concentrations were determined by measuring the absorbance at 290 nm and using an extinction coefficient of 26,600 M^–1 cm^–1.
For pyrene labeling, 10–20 mL of G-actin solution were dialyzed against labeling buffer following the procedure described by Doolittle et al.[38] […]
Pyrene assays were conducted to assess the inhibitory properties of cytochalasins on actin polymerization under defined conditions in vitro using G-actin and actin seeds. The degree of labeling was determined; EC290 nm actin: 26600 1/M × cm; EC342 nm pyrene: 31091 1/M × cm. […]

[4] = tested on: filamentous actin (F-actin) in U-2OS wild type (wt) cells; experiment: Actin disruption assay in U-2OS cells (phalloidin staining); assay type: cell-based, human; conditions: for effect on F-actin network, high dose 1 h: 5 x IC50 (L929), compared to control; for effect on actin and nuclei number, high dose 24 h: 5 x IC50, 24 h, differences between 1 and 24 h treatment
Description: For this, the human osteosarcoma cell line U-2OS was treated using concentrations estimated based on previously determined IC50 values in murine L929 fibroblasts (Table 1), referred to as low dose (1 × IC50), and a 5-fold concentration, referred to as high dose (5 × IC50). Reorganization of the F-actin network was also investigated upon high dose treatment, followed by washout and a 1 h recovery phase in fresh medium. The impact on F-actin network organization was visualized using fluorescently labeled phalloidin (Figure 2). […] In addition, the effects on F-actin structures observed upon high dose treatment of all compounds were fully reversible after a 1 h recovery time (Figure 2m–q).
The respective previously determined IC50 values in L929 were used to calculate the treatment concentration (1 × IC50: low dose; 5 × IC50: high dose).[37] DMSO was used as the vehicle control, corresponding to the highest compound volume used in the assay. Coverslips were coated with 25 μg/mL fibronectin (Roche, Mannheim, Germany) diluted 1:40 in phosphate buffered saline (PBS, pH 7.4, Life Technologies), and cells were seeded at a density of 20,000 cells and allowed to spread overnight. CO2-equilibrated culture medium was spiked with the desired compound and DMSO, respectively, in the above-mentioned concentration, and cells were treated with prepared medium for 1 h under cell culture conditions. For long-term experiments, the treatment phase was extended to 24 h. Cells were washed once and fixed afterward using 4% prewarmed paraformaldehyde (PFA) supplied in PBS for 20 min at 37 °C, followed by three additional washing steps with prewarmed PBS buffer. In addition, the reversibility of high dose effects on F-actin network organization was investigated by a washout procedure including three times prewarmed PBS wash steps prior to the addition of fresh medium and a recovery time of 1 h before fixation. In the case of 24 h treatments, the recovery phase was extended to 47 h. Cells were permeabilized with 0.1% Triton X-100 (Bio-Rad Laboratories, Hercules, CA, USA) in PBS buffer for 1 min at room temperature, washed three times with PBS, and stained for F-actin using ATTO-594-coupled phalloidin (ATTO-Tec, Siegen, Germany) diluted in PBS buffer (1:100) for 1 h at room temperature. Coverslips were washed thrice in PBS and mounted in ProLong Diamond antifade mountant (Invitrogen) containing DAPI to probe for nuclear DNA. Cells were recorded using an inverted microscope (Nikon Eclipse Ti2, Tokyo, Japan) equipped with a 60 times Nikon oil immersion objective (Plan Apofluar, 1.4 NA), a pE-4000 (CoolLED, Andover, UK) as light source, and a pco.edge back-illuminated sCMOS camera (Excelitas Technologies, Mississauga, ON, Canada). The microscopy system was operated by and images were recorded with NIS (Nikon) and processed with ImageJ (NIH, Bethesda, MD, USA).

[5] = tested on: glucose carrier in human erythrocytes; conditions: human erythrocytes ref 29, 30; cited from earlier work
[6] = tested on: human potassium channel hKv1.5; set-up: method as in PMID 15800051; conditions: cited from earlier work
[7] = 5 days of incubation, MTT, NC: no cytotoxic effect, or only weak inhibition of proliferation

Row | SMILES | IC50 [1] [nM] | IC50 [2] [nM] | relative actin polymerization rate [3] | effect on F-actin network, high dose 1 h ([4]; 1 h) | effect on actin and nuclei number, high dose 24 h [4] | IC50 [2, 7] [nM] | inhibition of glucose transport [5] | inhibitory activity on hKv1.5 [6] | effect on F-actin network, low dose ([4]; 1 x IC50 (L929), 1 h)
1 | C/C(=C\c1csc(C)n1)[C@@H]1C[C@@H]2O[C@]2(C)CCC[C@H](C)[C@H](O)[C@@H](C)C(=O)C(C)(C)[C@@H](O)CC(=O)O1 [Epothilone B, reference compound] | 0.095 | 0.58 | – | – | – | – | – | – | –
2 | C=C1[C@@H](C)[C@H]2[C@H](Cc3ccccc3)N(C)C(=O)[C@]23OC(=O)/C=C/[C@H](O)CCC[C@@H](C)C/C=C/[C@H]3[C@@H]1O [Compound 4, N-methyl cytochalasin B] | – | – | 83% and 84–86% and 84% | only slight; also recorded: moderate effects | caused multinucleation, but left the actin network largely unchanged | > 10000 | – | – | –
3 | C=C1[C@@H](C)[C@H]2[C@H](Cc3ccccc3)NC(=O)[C@]23OC(=O)/C=C/[C@H](O)CCC[C@@H](C)C/C=C/[C@H]3[C@@H]1O [Compound 2, cytochalasin B] | – | – | 45% | complete collapse of the F-actin network; also recorded: actin disruption | + multinucleation; also recorded: formation of multinucleated cells | 1300 | inhibits glucose transport | inhibitory activity | partially led to compromised lamellipodia and a reduction of intermittent, cytoplasmic F-actin

From publication PMC11519904, “Comprehensive Cell Biological Investigation of Cytochalasin B Derivatives with Distinct Activities on the Actin Network” (Journal of Natural Products, 2024)
